Patent publication US11554120B2, “1H-pyrazolo[4,3-d]pyrimidine compounds as toll-like receptor 7 (TLR7) agonists and methods and uses therefor” (BRISTOL-MYERS SQUIBB COMPANY, priority 2018, dated 2023)

Target: T1, human TLR7 (Homo sapiens, UniProt Q9NYK1)
T1 construct: host or cells: HEK-Blue TLR7 cells (engineered human embryonic kidney cells)
T1 sequence (Q9NYK1 27-1049): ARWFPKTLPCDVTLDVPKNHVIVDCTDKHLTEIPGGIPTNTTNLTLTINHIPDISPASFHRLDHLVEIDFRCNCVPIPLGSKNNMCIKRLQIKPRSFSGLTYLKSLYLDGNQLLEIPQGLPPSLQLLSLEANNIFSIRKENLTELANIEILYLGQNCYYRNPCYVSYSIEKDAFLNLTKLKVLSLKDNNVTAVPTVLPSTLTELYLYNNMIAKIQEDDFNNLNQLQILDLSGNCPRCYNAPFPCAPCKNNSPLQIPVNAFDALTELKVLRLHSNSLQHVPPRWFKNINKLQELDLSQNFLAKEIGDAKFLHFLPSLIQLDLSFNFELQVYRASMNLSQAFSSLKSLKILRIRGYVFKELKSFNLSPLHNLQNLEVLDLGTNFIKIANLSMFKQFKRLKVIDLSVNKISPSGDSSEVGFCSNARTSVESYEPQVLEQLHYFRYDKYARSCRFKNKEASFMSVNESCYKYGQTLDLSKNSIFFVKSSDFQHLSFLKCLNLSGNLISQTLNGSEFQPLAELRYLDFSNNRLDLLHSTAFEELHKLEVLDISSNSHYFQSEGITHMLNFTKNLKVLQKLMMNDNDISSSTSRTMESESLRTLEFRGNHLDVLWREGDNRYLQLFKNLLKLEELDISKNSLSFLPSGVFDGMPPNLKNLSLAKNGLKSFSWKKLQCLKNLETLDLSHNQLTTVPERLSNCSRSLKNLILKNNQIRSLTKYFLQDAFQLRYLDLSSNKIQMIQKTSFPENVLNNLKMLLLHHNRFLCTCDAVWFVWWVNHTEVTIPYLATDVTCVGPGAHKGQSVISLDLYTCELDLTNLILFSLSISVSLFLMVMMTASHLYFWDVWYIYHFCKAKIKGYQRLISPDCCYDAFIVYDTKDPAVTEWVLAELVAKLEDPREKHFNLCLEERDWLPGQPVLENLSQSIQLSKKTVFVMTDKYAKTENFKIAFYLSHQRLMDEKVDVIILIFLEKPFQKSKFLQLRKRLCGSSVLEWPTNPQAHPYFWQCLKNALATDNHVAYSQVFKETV
Assay: Human TLR7 agonist activity assay (HEK-Blue TLR7 SEAP reporter)
Type: cell-based
Details: HEK-Blue TLR7 cells, 18 h treatment, in some instances average of plural assays, read-out: hTLR7 EC50
Experimental: Human TLR7 Agonist Activity Assay
HEK-Blue™ TLR7 cells were added to each well of a 384-well tissue-culture plate (15,000 cells per well) and incubated 16-18 h at 37° C., 5% CO2. Compounds (100 nl) were dispensed into wells containing the HEK-Blue™ TLR cells and the treated cells were incubated at 37° C., 5% CO2. After 18 h treatment ten microliters of freshly-prepared Quanti-Blue™ reagent (Invivogen) was added to each well, incubated for 30 min (37° C., 5% CO2) and SEAP levels measured using an Envision plate reader (OD=620 nm).

Row | SMILES | EC50 [nM]
1 | CCCCNc1nc(N)nc2cnn(Cc3ccc(Oc4ccc(CNCCOC)cc4)cc3OC)c12 [Compound 808] | 157
2 | CCC[C@@H](CCO)Nc1nc(N)nc2cnn(Cc3ccc(CN4CCCNCC4)cc3OC)c12 [Compound 838] | 39.6
3 | CCC[C@@H](CCO)Nc1nc(N)nc2cnn(Cc3ccc(CN4CC(O)C4)cc3OC)c12 [Compound 863] | 9.5
4 | CCCCNc1nc(N)nc2cnn(Cc3ccc(CO)cc3OC)c12 [Compound 818] | 258
5 | CCCCNc1nc(N)nc2cnn(Cc3ccc(CN4CCN(C)CC4)cc3OC)c12 [Compound 827] | 47.6
6 | CCCCNc1nc(N)nc2cnn(Cc3ccc(Oc4ccc(CNCCO)cc4)cc3OC)c12 [Compound 802] | 43.8
7 | CCC[C@@H](CCO)Nc1nc(N)nc2cnn(Cc3ccc(CNC4(C)CCOCC4)cc3OC)c12 [Compound 848] | 33
8 | CCCCNc1nc(N)nc2cnn(Cc3ccc(CNc4ccc(CCO)cc4)cc3OC)c12 [Compound 822] | 244
9 | CCCCNc1nc(N)nc2cnn(Cc3ccc(CN4CCNCC4)cn3)c12 [Compound 850] | 1620
10 | CCC[C@@H](CCO)Nc1nc(N)nc2cnn(Cc3ccc(CN4CC(OC)C4)cc3)c12 [Compound 877] | 190
11 | CCC[C@@H](CCO)Nc1nc(N)nc2cnn(Cc3ccc(CN4CC(F)(F)C4)cc3OC)c12 [Compound 862] | 11
12 | CCCCNc1nc(N)nc2cnn(Cc3ccc(CNCC4CC(O)C4)cc3OC)c12 (stereo not shown) [Compound 807] | 2550
13 | CCCCNc1nc(N)nc2cnn(Cc3ccc(CN(C)CCCO)cc3OC)c12 [Compound 825] | 43.5
14 | CCCCNc1nc(N)nc2cnn(Cc3ccc(CNC4CCC4)cc3OC)c12 [Compound 800] | 58.3
15 | CCCCNc1nc(N)nc2cnn(Cc3ccc(CN4CC(CCO)C4)cc3OC)c12 [Compound 815] | 33.2
16 | CCCCNc1nc(N)nc2cnn(Cc3ccc(Oc4ccc(CNC5CCC5)cc4)cc3OC)c12 [Compound 860] | 19.5
17 | CCCCNc1nc(N)nc2cnn(Cc3ncc(CNC4CCOCC4)cc3OC)c12 [Compound 856] | 1160
18 | CCCCNc1nc(N)nc2cnn(Cc3ccc(Oc4ccc(CNCC(C)(C)O)cc4)cc3OC)c12 [Compound 857] | 11.5
19 | CCC[C@@H](CCO)Nc1nc(N)nc2cnn(Cc3ccc(CO)cc3)c12 [Compound 874] | 2050
20 | CCCCNc1nc(N)nc2cnn(Cc3ccc(Oc4ccc(CO)cc4)cc3OC)c12 [Compound 803] | 569
21 | CCC[C@@H](CCO)Nc1nc(N)nc2cnn(Cc3ccc(CN4CC5(CNC5)C4)cc3OC)c12 [Compound 835] | 89
22 | CCCCNc1nc(N)nc2cnn(Cc3ccc(Oc4ccc(CN5CCN(CCO)CC5)cc4)cc3OC)c12 [Compound 810] | 245

Row | SMILES | EC50 [nM]
23 | CCCCNc1nc(N)nc2cnn(Cc3ccc(CN4CCCNCC4)cc3OC)c12 [Compound 821] | 33.8
24 | CCCCNc1nc(N)nc2cnn(Cc3ccc(CNC(C)(C)C)cc3OC)c12 [Compound 828] | 98.7
25 | CCCCNc1nc(N)nc2cnn(Cc3ccc(Oc4ccc(C(C)(C)O)cc4)nc3)c12 [Compound 829] | 1340
26 | CCOCCNc1nc(N)nc2cnn(Cc3ccc(CNC4CCC4)cc3OC)c12 [Compound 864] | 216
27 | CCC[C@H](CCO)Nc1nc(N)nc2cnn(Cc3ccc(CNC4CCC4)cc3OC)c12 [Compound 872] | 32.7
28 | CCCCNc1nc(N)nc2cnn(Cc3ccc(CNC4(CO)CCCC4)cc3OC)c12 [Compound 820] | 121
29 | CCC[C@@H](CCNC(C)=O)Nc1nc(N)nc2cnn(Cc3ccc(CNC4(C)CCOCC4)cc3OC)c12 [Compound 847] | 187
30 | CCC[C@@H](CCO)Nc1nc(N)nc2cnn(Cc3ccc(CN4CC(CCO)C4)cc3OC)c12 [Compound 842] | 28.3
31 | CCC[C@@H](CCO)Nc1nc(N)nc2cnn(Cc3ccc(Cn4ccnc4)cc3OC)c12 [Compound 836] | 15.3
32 | CCCCNc1nc(N)nc2cnn(Cc3ccc(CN4CCCNCC4)cc3OC)c12 [Compound 845] | 21.2
33 | CCCCNc1nc(N)nc2cnn(Cc3ccc(CC#N)cc3OC)c12 [Compound 873] | 253
34 | CCCCNc1nc(N)nc2cnn(Cc3ccc(CNC4CCC4)cc3F)c12 [Compound 853] | 420
35 | CCCCNc1nc(N)nc2cnn(Cc3ccc(CNCCO)cc3OC)c12 [Compound 816] | 92.5
36 | CCC[C@@H](CCO)Nc1nc(N)nc2cnn(Cc3ccc(CN4C[C@@H]5C[C@H]4CN5)cc3OC)c12 [Compound 843] | 55.9
37 | COCCNc1nc(N)nc2cnn(Cc3ccc(CNC4CCC4)cc3OC)c12 [Compound 865] | 959
38 | CCCCNc1nc(N)nc2cnn(Cc3ccc(CN4CCCC4)cc3OC)c12 [Compound 833] | 31.1
39 | CCCCNc1nc(N)nc2cnn(Cc3ccc(CNCC(C)(C)O)cc3OC)c12 [Compound 805] | 41.4
40 | CCC[C@@H](CCO)Nc1nc(N)nc2cnn(Cc3ccc(CN4CC5CNCC5C4)cc3OC)c12 (stereo partly shown) [Compound 834] | 29.9
41 | CCC[C@@H](CCO)Nc1nc(N)nc2cnn(Cc3ccc(CN4CCc5cnccc5C4)cc3OC)c12 [Compound 844] | 4.6
42 | CCCCNc1nc(N)nc2cnn(Cc3ccc(CN4CC5CC4CN5)cn3)c12 (stereo not shown) [Compound 852] | 3170
43 | CCC[C@@H](CCO)Nc1nc(N)nc2cnn(Cc3ccc(CN4CC(O)C4)cc3)c12 [Compound 878] | 1110
44 | CCCCNc1nc(N)nc2cnn(Cc3ccc(CN4CCN(CCO)CC4)cc3OC)c12 [Compound 823] | 21.5

Row | SMILES | EC50 [nM]
45 | CCC[C@@H](CCO)Nc1nc(N)nc2cnn(Cc3ccc(CN4CC(OC(C)C)C4)cc3OC)c12 [Compound 868] | 1.4
46 | CCCCNc1nc(N)nc2cnn(Cc3ccc(CNC4CCC(O)CC4)cc3OC)c12 (stereo not shown) [Compound 806] | 41.4
47 | CCCCNc1nc(N)nc2cnn(Cc3ccc(CN4CCN(CCO)CC4)cc3F)c12 [Compound 870] | 1800
48 | CCC[C@@H](CCO)Nc1nc(N)nc2cnn(Cc3ccc(CNC4CC(C(C)(C)C)C4)cc3OC)c12 (stereo partly shown) [Compound 866] | 19.5
49 | CCCCNc1nc(N)nc2cnn(Cc3ccc(CN4CC5CNCC5C4)cc3OC)c12 (stereo not shown) [Compound 812] | 102
50 | CCCCNc1nc(N)nc2cnn(Cc3ncc(CNC4CCC4)cc3OC)c12 [Compound 855] | 640
51 | CCCCNc1nc(N)nc2cnn(Cc3ccc(CN4CCCC4)cn3)c12 [Compound 851] | 1770
52 | CCC[C@@H](CCO)Nc1nc(N)nc2cnn(Cc3ccc(CNCc4ccncc4)cc3OC)c12 [Compound 837] | 2.4
53 | CCCCNc1nc(N)nc2cnn(Cc3ccc(Oc4ccc(CNC5CCOCC5)cc4)cc3OC)c12 [Compound 858] | 10.8
54 | CCCCNc1nc(N)nc2cnn(Cc3ccc(CNC4CC(O)C4)cc3OC)c12 (stereo not shown) [Compound 811] | 138
55 | CCCCNCc1ccc(Cn2ncc3nc(N)nc(NCCCC)c32)c(OC)c1 [Compound 831] | 104
56 | CCC[C@@H](CCO)Nc1nc(N)nc2cnn(Cc3ccc(CN4CC5CC4CN5)cc3OC)c12 (stereo partly shown) [Compound 839] | 242
57 | CCC[C@@H](CCO)Nc1nc(N)nc2cnn(Cc3ccc(CNC4CCC4)cc3)c12 [Compound 875] | 58
58 | CCCCNc1nc(N)nc2cnn(Cc3ccc(Oc4ccc(CN5CCN(C)CC5)cc4)cc3OC)c12 [Compound 809] | 74.5
59 | CCC[C@@H](CCO)Nc1nc(N)nc2cnn(Cc3ccc(CNC4CCC4)cc3OC)c12 [Compound 841] | 9.7
60 | CCCCNc1nc(N)nc2cnn(Cc3ccc(CNCCOC)cc3OC)c12 [Compound 826] | 182
61 | CCC[C@@H](CCO)Nc1nc(N)nc2cnn(Cc3ccc(CO)cc3OC)c12 [Compound 817] | 27.8
62 | CCC[C@@H](CCO)Nc1nc(N)nc2cnn(Cc3ccc(CN4CCN(CCO)CC4)cc3)c12 [Compound 879] | 370
63 | CCCCNc1nc(N)nc2cnn(Cc3ccc(CN4CCN(CCO)CC4)cn3)c12 [Compound 849] | 2030
64 | CCC[C@@H](CCO)Nc1nc(N)nc2cnn(Cc3ccc(CN4CC(OC)C4)cc3OC)c12 [Compound 861] | 1.2
